In patent US5407942A, “Biphenylmethyl-substituted pyridones” (Bayer Aktiengesellschaft, priority 1992, dated 1995):
pKi: −log10 of the molar value. ≈ marks a conversion by molar mass, not a printed value.

Tests used:
angiotensin II receptor = molecular target: T1, angiotensin II receptor (Bos taurus, UniProt P25104); assay: Interaction with the angiotensin II receptor in membrane fractions of the adrenal gland cortex (bovine), 3H-angiotensin II binding; details: 3H-angiotensin II 3-5 nM, 60 min at room temperature, read-out: Ki, specific binding of 3H-angiotensin II
T1 construct: partially purified membrane fractions of bovine AGC using radioactive angiotensin II; from tissue; host or cells: bovine adrenal gland cortex, partially purified membrane fractions
T1 sequence (P25104 1-359): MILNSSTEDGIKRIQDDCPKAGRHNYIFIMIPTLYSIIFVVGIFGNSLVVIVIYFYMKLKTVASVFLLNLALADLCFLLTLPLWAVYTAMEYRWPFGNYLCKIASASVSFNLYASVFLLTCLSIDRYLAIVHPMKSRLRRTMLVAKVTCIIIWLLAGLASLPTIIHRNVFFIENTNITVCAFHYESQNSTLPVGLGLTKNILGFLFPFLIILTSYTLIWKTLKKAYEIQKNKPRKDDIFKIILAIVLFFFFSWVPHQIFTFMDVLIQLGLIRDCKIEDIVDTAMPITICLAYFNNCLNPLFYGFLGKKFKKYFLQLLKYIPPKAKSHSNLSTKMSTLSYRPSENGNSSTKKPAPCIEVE
From the text: Interaction of the compounds according to the invention with the angiotensin II receptor in membrane fractions of the adrenal gland cortex (bovine)
Bovine adrenal gland cortices (AGC), which have been freshly removed and carefully freed from gland medulla, are comminuted in sucrose solution (0.32M) with the aid of an Ultra-Turrax (Janke & Kunkel, Staufen i.B.) to give a coarse membrane homogenate and partially purified in two centrifugation steps to give membrane fractions. The receptor binding investigations are carried out on partially purified membrane fractions of bovine AGC using radioactive angiotensin II in an assay volume of 0.25 ml, which specifically contains the partially purified membranes (50-80 μg), ^3 H-angiotensin II (3-5 nM), test buffer solution (50 mM Tris, pH 7.2, 5 mM MgCl2) and the substances to be investigated. After an incubation time of 60 min at room temperature, the unbound radioactivity of the samples is separated by means of moistened glass fibre filters (Whatman GF/C) and the bound radioactivity is measured […] in a scintillation cocktail after washing the protein with ice-cold buffer solution (50 mM Tris/HCl, pH 7.4, 5% PEG 6000). The analysis of the raw data was carried out using computer programs to give Ki or IC50 values (Ki : IC50 values corrected for the radioactivity used; IC50 values: concentration at which the substance to be investigated causes a 50% inhibition of the specific binding of the radioligand).

[1] = system: isolated rabbit aorta rings; contraction induced by angiotensin II (AII); assay: Inhibition of vascular contraction in isolated rabbit aorta rings induced by angiotensin II (AII); type: cell-based; details: Oryctolagus cuniculus; isolated rabbit aorta rings in vitro, 37° C.; based on 3rd = submaximal agonist concentration; read-out: IC50 against contractions induced by AII
Description: Investigation of the inhibition of the contraction induced by agonists
Rabbits of either sex are stunned by a blow to the back of the head and bled out, or in some cases anaesthetised with Nembutal (about 60-80 mg/kg i.v.) and sacrificed by opening the thorax. The thorax aorta is removed, freed from adhering connective tissue, divided into ring segments 1.5 mm wide and individually transferred under an initial loading of about 3.5 g to 10 ml organ baths containing Krebs-Henseleit nutrient solution, which is temperature-controlled at 37° C. and aerated with 95% O2 /5% CO2, of the following composition: 119 mmol/l of NaCl; 2.5 mmol/l of CaCl2 ×2H2 O; 1.2 mmol/l of KH2 PO4; 10 mmol/l of glucose; 4.8 mmol/l of KCl; 1.4 mmol/l of MgSO4 ×7 H2 O and 25 mmol/l of NaHCO3.
The contractions are detected isometrically by Statham UC2 cells by means of bridge amplifiers (ifd Mulheim or DSM Aalen) and digitalised and assessed by means of A/D converters (System 570, Keithley Munich). Agonist dose response curves (DRC) are plotted hourly. With each DRC, 3 or 4 individual concentrations are applied to the baths at a 4 min interval. After the end of the DRC and subsequent washing-out cycles (16 times in each case about 5 sec/min with the abovementioned nutrient solution), a 28-minute rest or incubation phase follows, during which the contractions as a rule reach the starting value again.
The height of the 3rd DRC, in a normal case, is used as a reference variable for the assessment of the test substance to be investigated in further runs, which is applied to the baths in the following DRCs in increasing doses in each case at the start of the incubation period. Each aorta ring is in this case stimulated for the whole day, always with the same agonist.
Agonists and their standard concentrations (application
For the calculation of the IC50 (concentration at which the substance to be investigated causes a 50% inhibition), the effect is in each case based on the 3rd=submaximal agonist concentration.

smooth muscle cells = assay: Inhibition of the proliferation of smooth muscle cells (3H-thymidine incorporation); type: cell-based, rats or pigs; details: 10^-6 M, stimulated with AII, serum or other factors
Description: Investigation of the inhibition of the proliferation of smooth muscle cells by the compounds according to the invention
To determine the antiproliferative action of the compounds, smooth muscle cells are used which are obtained from aortas of rats or pigs by the media explant technique [R. Ross, J. Cell. Biol. 50, 172, 1971]. The cells are inoculated into suitable culture dishes, as a rule 24-hole plates, and cultured at 37° C. for 2-3 days in medium with addition of serum, 2 mmol L-glutamine and 15 mmol HEPES, pH 7.4 in 5% CO2. The cells are then synchronised by withdrawal of serum for 2-3 days and then stimulated into growth with AII, serum or other factors. Test compounds are simultaneously added. […]

Row | SMILES | pKi (angiotensin II receptor) | IC50 [1] [µg/mL] | inhibition at 1 µM (smooth muscle cells) [%]
1 | CCCCc1cc2ccccc2c(=O)n1Cc1ccc(-c2ccccc2-c2nnn[nH]2)cc1 [Example 2, 3-Butyl-2-{[2'-(tetrazol-5-yl)-biphenyl-4-yl]methyl}-isoquinolin-1(2H)-one] | 7.38 | 0.23 (≈ 0.528 µM) | –
2 | O=c1c2ccccc2cc(-c2ccccc2)n1Cc1ccc(-c2ccccc2-c2nnn[nH]2)cc1 [Example 6, 3-Phenyl-2-{[2'-(tetrazol-5-yl)-biphenyl-4-yl]methyl}-isoquinolin-1(2H)-one] | 5.70 | > 1 | 70
3 | CCc1cc2ccccc2c(=O)n1Cc1ccc(-c2ccccc2-c2nnn[nH]2)cc1 [Example 4, 3-Ethyl-2-{[2'-(tetrazol-5-yl)-biphenyl-4-yl]methyl}-isoquinolin-1(2H)-one] | 6.12 | 0.84 (≈ 2.06 µM) | –
